From ChEMBL document CHEMBL2429827, “Pharmacological evaluation of some novel synthesized compounds derived from spiro(cyclohexane-1,2-thiazolidines)” (2013) come the findings set out here.

For assay [1], the system named is Aspergillus niger. Kind of assay: Antifungal activity against Aspergillus niger after 24 hrs by agar diffusion method. The class given is functional, organism-based. In general terms: A growth-free zone around the sample is the usual read-out of agar diffusion tests.
Assay [2] concerns Candida albicans. The assay is described as follows: Antifungal activity against Candida albicans NRRL Y-477 after 24 hrs by agar diffusion method. The class given is functional, organism-based.
Assay [3] concerns Escherichia coli. The assay is described as follows: Antibacterial activity against Escherichia coli NRRL B-210 after 24 hrs by agar diffusion method. The assay is classed as functional, organism-based.
Assay [4] deals with Bacillus subtilis. Kind of assay: Antibacterial activity against Bacillus subtilis NRRL B-543 after 24 hrs by agar diffusion method. The class given is functional, organism-based.
Assay [5] relates to Staphylococcus aureus. Kind of assay: Antibacterial activity against Staphylococcus aureus NRRL B-313 after 24 hrs by agar diffusion method. The assay is classed as functional, organism-based.
Assay [6] relates to Aspergillus niger. Kind of assay: Antifungal activity against Aspergillus niger after 48 hrs by two-fold serial dilution technique. The assay is classed as functional.
Assay [7] deals with Candida albicans. Kind of assay: Antifungal activity against Candida albicans NRRL Y-477 after 48 hrs by two-fold serial dilution technique. The assay is classed as functional. The following applies: NRRL Y-477, 48 h.
The subject of assay [8] is Bacillus subtilis. The assay is described as follows: Bacteriostatic activity against Bacillus subtilis NRRL B-543 after 24 hrs by two-fold serial dilution technique. The class given is functional. The following applies: NRRL B-543, 24 h.
Assay [9] concerns Staphylococcus aureus. Kind of assay: Bacteriostatic activity against Staphylococcus aureus NRRL B-313 after 24 hrs by two-fold serial dilution technique. The assay is classed as functional. To be noted: NRRL B-313, 24 h.
Assay [10] deals with Escherichia coli. The assay is described as follows: Bacteriostatic activity against Escherichia coli NRRL B-210 after 24 hrs by two-fold serial dilution technique. The assay is classed as functional. To be noted: NRRL B-210, 24 h.
The subject of assay [11] is MCF7. Kind of assay: Cytotoxicity against human MCF7 cells at 100 ug/ml after 72 hrs by SRB assay. The assay is classed as functional. Background: In SRB staining, fixed cells bind dye roughly in proportion to their protein.
Assay [12] relates to HepG2. Kind of assay: Cytotoxicity against human HepG2 cells at 100 ug/ml after 72 hrs by SRB assay. The class given is functional.
Assay [13] concerns Radical scavenging activity. Kind of assay: Antioxidant activity assessed as DPPH radical scavenging activity at 100 ug/ml after 30 mins by spectroscopic analysis. The assay is classed as functional. (Loss of DPPH colour is used to gauge radical scavenging.)
Assay [14] deals with Radical scavenging activity. Kind of assay: Antioxidant activity assessed as DPPH radical scavenging activity at 50 ug/ml after 30 mins by spectroscopic analysis. The assay is classed as functional.

Each structure is given as a SMILES string. Converted amounts (≈) assume the structure as drawn. The source made the active and inactive calls. No cut-off for these calls is given here.

As for `O=C1/C(=C\c2ccc(Cl)cc2)SC2(CCCCC2)N1c1ccc(F)cc1`, the outcome in assay [1], in assay [4] and in [5] was inactive. Further, the outcome in [2] and in [3] was Active.

Take `NS(=O)(=O)c1ccc(/N=C2\CSC3(CCCCC3)N2c2ccc(F)cc2)cc1`: the outcome in assay [1] and in [3] was inactive. For the same compound, the result in [2], in [4] and in [5] was Active.

A word on the MIC: it is the least concentration at which growth counts as inhibited. The low end stands for greater potency, the high end for weaker potency. Regarding `N/N=C1\CSC2(CCCCC2)N1c1ccc(F)cc1`, the MIC was determined as 0.45 µg/mL (≈ 1.61 µM) in assay [6], 0.435 µg/mL (≈ 1.56 µM) in assay [7], 0.4 µg/mL (≈ 1.43 µM) in assay [8] and 0.4 µg/mL (≈ 1.43 µM) in [9]. Also, the outcome in assay [1], in assay [2], in assay [4] and in [5] was Active. The result in [3] was inactive.

With `O=C1CSC2(CCCCC2)N1c1ccc(F)cc1`, the minimal inhibitory concentration (MIC) in [6] came to 0.125 µg/mL (≈ 0.471 µM); in assay [7], 0.125 µg/mL (≈ 0.471 µM); in [10], 0.125 µg/mL (≈ 0.471 µM); in [8], 0.125 µg/mL (≈ 0.471 µM); in [9], 0.15 µg/mL (≈ 0.565 µM). Moreover, the outcome in assay [1], in assay [2], in assay [3], in [4] and in [5] was Active.

On to `CC(=O)Nc1nc2c(c(-c3ccc(C)cc3)c1C#N)SC1(CCCCC1)N2c1ccc(F)cc1`, for which the Activity stood at 65% in assay [11], 50.63% in assay [12], 79.8% in assay [13] and 49.9% in assay [14].

Consider `Cc1ccc(C2NOC3=C2SC2(CCCCC2)N3c2ccc(F)cc2)cc1` (centres undefined), for which the result in assay [1], in assay [3], in [4] and in assay [5] was inactive. Further, in assay [2], the result was Active. For the same compound, the Activity is 56.62% in assay [11], 45.6% in [12], 60.5% in assay [13] and 41% in assay [14].

For `Cc1ccc(-c2c3c(nc4[nH]c(=S)nc(NN)c24)N(c2ccc(F)cc2)C2(CCCCC2)S3)cc1`, the Activity in assay [11] turned out to be 45.62%; in assay [12], 15.65%; in assay [13], 78.2%; in [14], 50.2%.

On to `Cc1ccc(-c2c(C#N)c(N)nc3c2SC2(CCCCC2)N3c2ccc(F)cc2)cc1`, for which the result in assay [1], in [3] and in [4] was inactive. For the same compound, the result in [2] and in [5] was Active. Moreover, the Activity in assay [11] was found to be 55.84%; in assay [12], 45%; in assay [13], 85%; in assay [14], 54.6%.

Regarding `Cc1ccc(-c2c3c(oc(=O)c2C#N)N(c2ccc(F)cc2)C2(CCCCC2)S3)cc1`, the MIC in [6] was found to be 0.3 µg/mL (≈ 0.694 µM); in assay [7], 0.2 µg/mL (≈ 0.462 µM); in [8], 0.12 µg/mL (≈ 0.277 µM); in assay [9], 0.125 µg/mL (≈ 0.289 µM). In addition, the outcome in [1], in [2], in assay [4] and in [5] was Active. Further, the outcome in [3] was inactive.

Take `O=C1/C(=C\c2ccc(Cl)cc2)SC2(CCCCC2)N1c1ccc(Br)cc1`: the result in [1], in [3] and in assay [5] was inactive. For the same compound, the result in [2] and in assay [4] was Active.

Turning to `Cc1ccc(-c2c3c(nc4nc(C)[nH]c(=O)c24)N(c2ccc(F)cc2)C2(CCCCC2)S3)cc1`, the Activity in assay [11] is 84%; in assay [12] it was 78.85%; in assay [13], 92.5%; in assay [14], 65%.

Turning to `O=C1CSC2(CCCCC2)N1c1ccc(Br)cc1`, the MIC in assay [7] turned out to be 0.2 µg/mL (≈ 0.613 µM); in [10] it was 0.2 µg/mL (≈ 0.613 µM); in assay [8], 0.2 µg/mL (≈ 0.613 µM); in assay [9] it was 0.3 µg/mL (≈ 0.92 µM). For the same compound, the outcome in [1], in assay [2], in assay [3], in assay [4] and in assay [5] was Active.

As to `Fc1ccc(N2/C(=N/Nc3ccccc3)CSC23CCCCC3)cc1`, the result in assay [1], in assay [3] and in assay [4] was inactive. The result in [2] and in assay [5] was Active.

On to `Cc1ccc(/C=C2/SC3(CCCCC3)N(c3ccc(F)cc3)C2=O)cc1`, for which the Activity is 61.2% in [11], 50.32% in assay [12], 66.8% in [13] and 41.1% in assay [14].

Turning to `O=C1/C(=N\Nc2ccc([N+](=O)[O-])cc2)SC2(CCCCC2)N1c1ccc(F)cc1`, the MIC worked out at 0.3 µg/mL (≈ 0.724 µM) in [6], 0.45 µg/mL (≈ 1.09 µM) in assay [7], 0.175 µg/mL (≈ 0.422 µM) in assay [8] and 0.175 µg/mL (≈ 0.422 µM) in [9]. The result in [1] and in assay [3] was inactive. In addition, the result in assay [2], in assay [4] and in [5] was Active.

In the case of `Cc1ccc(-c2c3c(nc4[nH]c(=S)[nH]c(=S)c24)N(c2ccc(F)cc2)C2(CCCCC2)S3)cc1`, the Activity in [11] is 64.2%; in assay [12] it was 50.21%; in assay [13], 84.6%; in assay [14], 60%.
